In the first experiment the test system is Monocyte. As to the kind of experiment: Inhibition of procoagulant activity in monocyte from human blood assessed as counteraction of IL1-induced tissue factor expression at 10 uM after 18 hrs measured as microunits of tissue factor/10^5 cells. The experiment is classed as functional.
For the molecule `COc1ccc(-c2cc(=O)c3c(OC)c(OC)c(OC)cc3o2)cc1O`, the Activity worked out at 0.

In the case of `CC(=O)OC[C@H]1O[C@@H](Oc2c(-c3ccc(O)c(O)c3)oc3cc(O)cc(O)c3c2=O)[C@H](O)[C@@H](O)[C@@H]1O`, the Activity turned out to be 12.4. Still for that read-out and setting: next, `C[C@@H]1O[C@@H](OC[C@H]2O[C@@H](Oc3c(-c4ccccc4O)oc4cc(O)cc(O)c4c3=O)[C@H](O)[C@@H](O)[C@@H]2O)[C@H](O)[C@H](O)[C@H]1O`: 28.4; `CCCC(=O)Oc1c(OC)cc(O)c2c(=O)c(O)c(-c3ccccc3)oc12`: 0; `COc1cc(-c2cc(=O)c3c(O)cc(O)cc3o2)cc(OC)c1OC`: 0.

`COc1ccc(-c2cc(=O)c3ccccc3o2)cc1` [4'-METHOXYFLAVONE]: the Activity is listed as 0.

As to `O=C1c2c(O)cc(O)cc2O[C@H](c2ccc(O)c(O)c2)[C@H]1O` [(+)-TAXIFOLIN], the Activity was found to be 41.

As to `COc1ccc(-c2cc(=O)c3c(O)cc(O)cc3o2)cc1` [ACACETIN], the Activity came to 26. Same read-out and setting: next, `O=c1c(O[C@@H]2O[C@H](CO)[C@@H](O)[C@H](O)[C@H]2O)c(-c2ccc(O)cc2)oc2cc(O)cc(O)c12` [ASTRAGALIN]: 0; `O=c1c(O[C@@H]2O[C@@H](CO)[C@H](O)[C@H]2O)c(-c2ccc(O)c(O)c2)oc2cc(O)cc(O)c12` [AVICULARIN]: 0.

As for `O=c1cc(-c2ccccc2)oc2cc(O)c(O)c(O)c12` [BAICALEIN], the Activity was found to be 55.2.

With `O=c1c(-c2ccc(O)cc2)coc2cc(O)ccc12` [DAIDZEIN], the Activity is 0. The same measure, in the same setting: next, `O=c1c(-c2ccc(O)cc2)coc2cc(O[C@@H]3O[C@H](CO)[C@@H](O)[C@H](O)[C@H]3O)ccc12` [DAIDZIN]: 0; `O=c1c(O)c(-c2ccccc2O)oc2cc(O)cc(O)c12` [DATISCETIN]: 28.4; `O=C1c2ccc(O)cc2O[C@@H](c2cc(O)c(O)c(O)c2)[C@@H]1O` [DIHYDROROBINETIN]: 0. Consider `COc1ccc(-c2cc(=O)c3c(O)c(OC)c(OC)cc3o2)cc1O` [EUPATORIN], for which the Activity was 0.

For the molecule `O=c1cc(-c2ccccc2)oc2ccccc12` [FLAVONE], the Activity was determined as 6.8.

Take `O=C1c2ccc(O)cc2O[C@H](c2ccc(O)c(O)c2)[C@H]1O` [FUSTIN]: the Activity stood at 0.

For `O=c1c(O)c(-c2ccccc2)oc2cc(O)cc(O)c12` [GALANGIN], the Activity is given as 0.

On to `COc1cc(-c2cc(=O)c3c(O)c(OC)c(OC)cc3o2)cc(OC)c1OC` [GRADENIN A], for which the Activity turned out to be 0. Still for that read-out and setting: the result for `O=c1cc(-c2ccc(Oc3c(O)cc4oc(-c5ccc(O)cc5)cc(=O)c4c3O)cc2)oc2cc(O)cc(O)c12` [HINOKIFLAVONE] reads 0; that for `COc1cc([C@@H]2CC(=O)c3c(O)cc(O)cc3O2)ccc1O` [HOMOERIODICTYOL], 0. The same measure, in the same setting: the result for `COc1c(-c2ccccc2)oc2c(ccc3occc32)c1=O` [KARANJIN] reads 0. On the same count and under the same terms, the result for `O=c1cc(-c2ccc(O)c(O)c2)oc2cc(O)cc(O)c12` [LUTEOLIN] reads 10.6. For the molecule `O=c1c(O)c(-c2ccc(O)cc2O)oc2cc(O)cc(O)c12` [MORIN], the Activity worked out at 0. Still for that read-out and setting: next, `O=c1c(O)c(-c2cc(O)c(O)c(O)c2)oc2cc(O)cc(O)c12` [MYRICETIN]: 1.2; `C[C@H]1O[C@@H](Oc2c(-c3cc(O)c(O)c(O)c3)oc3cc(O)cc(O)c3c2=O)[C@@H](O)[C@@H](O)[C@@H]1O` [MYRICITRIN]: 37.7. `O=C1C[C@@H](c2ccc(O)cc2)Oc2cc(O)cc(O)c21` [NARINGENIN]: the Activity was 0. Still for that read-out and setting: the result for `C[C@@H]1O[C@@H](OC[C@H]2O[C@@H](Oc3cc(O)c4c(c3)O[C@H](c3ccc(O)cc3)CC4=O)[C@H](O)[C@@H](O)[C@@H]2O)[C@H](O)[C@H](O)[C@H]1O` [NARIRUTIN] reads 0. Still for that read-out and setting: next, `COc1ccc([C@@H]2CC(=O)c3c(O)cc(O[C@@H]4O[C@H](CO)[C@@H](O)[C@H](O)[C@H]4O[C@@H]4O[C@@H](C)[C@H](O)[C@@H](O)[C@H]4O)cc3O2)cc1O` [NEOHESPERIDIN]: 0. On the same count and under the same terms, the result for `O=c1c(-c2ccc3c(c2)OCO3)coc2cc(O)ccc12` [PSEUDOBAPTOGENIN] reads 0; that for `O=c1c(O)c(-c2ccc(O)c(O)c2)oc2cc(O)c(O)c(O)c12` [QUERCETAGETIN], 0; that for `O=c1c(O)c(-c2ccc(O)c(O)c2)oc2cc(O)cc(O)c12` [QUERCETIN], 0. For the molecule `COc1cc(O)c2c(=O)c(O)c(-c3ccc(O)c(O)c3)oc2c1` [RHAMNETIN], the Activity was found to be 0. For the molecule `O=c1c(O)c(-c2cc(O)c(O)c(O)c2)oc2cc(O)ccc12` [ROBINETIN], the Activity worked out at 38.5.

For the molecule `C[C@@H]1O[C@@H](OC[C@H]2O[C@@H](Oc3c(-c4ccc(O)c(O)c4)oc4cc(O)cc(O)c4c3=O)[C@H](O)[C@@H](O)[C@@H]2O)[C@H](O)[C@H](O)[C@H]1O` [RUTIN], the Activity worked out at 9.1. Take `COc1ccc(-c2cc(=O)c3c(O)cc(O)c(-c4cc(-c5cc(=O)c6c(O)cc(OC)cc6o5)ccc4OC)c3o2)cc1` [SCIADOPITISIN]: the Activity came to 0. On the same count and under the same terms, next, `COc1cc(C2Oc3cc([C@H]4Oc5cc(O)cc(O)c5C(=O)[C@@H]4O)ccc3OC2CO)ccc1O` (stereo partly specified) [SILIBININ]: 0; `COc1ccc(-c2cc(=O)c3c(OC)c(OC)c(OC)c(OC)c3o2)cc1` [TANGERETIN]: 0; `COc1cc(O)c2c(=O)cc(-c3ccccc3)oc2c1` [TECHTOCHRYSIN]: 39.

The subject of a further experiment is Monocyte. Kind of experiment: Inhibition of procoagulant activity in monocyte from human blood assessed as counteraction of endotoxin-induced tissue factor expression after 18 hrs. The experiment is classed as functional, cell-based.
`O=c1cc(-c2ccc(Oc3c(O)cc4oc(-c5ccc(O)cc5)cc(=O)c4c3O)cc2)oc2cc(O)cc(O)c12` [HINOKIFLAVONE]: the IC50 amounted to 0.018 µM.

Another experiment has as its system Monocyte. Kind of experiment: Inhibition of procoagulant activity in monocyte from human blood assessed as counteraction of IL1-induced tissue factor expression after 18 hrs. The experiment is classed as functional, cell-based.
Consider `COc1cc(-c2oc3cc(O)cc(O)c3c(=O)c2O[C@@H]2O[C@H](CO)[C@@H](O)[C@H](O)[C@H]2O)ccc1O`, for which the IC50 was determined as 3.8 µM. `O=c1cc(-c2ccc(O)c(-c3c(O)cc(O)c4c(=O)cc(-c5ccc(O)cc5)oc34)c2)oc2cc(O)cc(O)c12` [AMENTOFLAVONE]: the IC50 came to 3 µM.

As for `O=c1cc(-c2ccc(O)cc2)oc2cc(O)cc(O)c12` [APIGENIN], the IC50 is 1.2 µM.

With `COc1cc2oc(-c3ccc(O)cc3)cc(=O)c2cc1CC=C(C)C` [BAVACHININ], the IC50 stood at 3.2 µM. Still for that read-out and setting: next, `O=c1cc(-c2ccccc2)oc2cc(O)cc(O)c12` [CHRYSIN]: 2.4 µM; `COc1cc(-c2cc(=O)c3c(O)cc(O)cc3o2)ccc1O` [CHRYSOERIOL]: 2.6 µM; `COc1ccc(-c2cc(=O)c3c(O)cc(O)cc3o2)cc1O` [DIOSMETIN]: 3 µM. The same measure, in the same setting: the result for `O=c1c(O)c(-c2ccc(O)c(O)c2)oc2cc(O)ccc12` [FISETIN] reads 3.7 µM. The same measure, in the same setting: the result for `COc1cc(-c2oc3cc(O)ccc3c(=O)c2O)ccc1O` [GERALDOL] reads 2.3 µM; that for `COc1ccc([C@@H]2CC(=O)c3c(O)cc(O)cc3O2)cc1O` [HESPERETIN], 2.1 µM. `O=c1cc(-c2ccc(Oc3c(O)cc4oc(-c5ccc(O)cc5)cc(=O)c4c3O)cc2)oc2cc(O)cc(O)c12` [HINOKIFLAVONE]: the IC50 was 0.048 µM. The same measure, in the same setting: the result for `COc1cc(-c2oc3cc(O)cc(O)c3c(=O)c2O)ccc1O` [ISORHAMNETIN] reads 3.8 µM. Same read-out and setting: the result for `COc1ccc(-c2oc3cc(O)cc(O)c3c(=O)c2O)cc1` [KAEMPFERIDE] reads 5.7 µM. `O=c1c(O)c(-c2ccc(O)cc2)oc2cc(O)cc(O)c12` [KAEMPFEROL]: the IC50 is 2.7 µM. On the same count and under the same terms, the result for `O=c1cc(-c2ccc(O)c(O[C@@H]3O[C@H](CO)[C@@H](O)[C@H](O)[C@H]3O)c2)oc2cc(O[C@@H]3O[C@H](CO)[C@@H](O)[C@H](O)[C@H]3O)cc(O)c12` [LUTEOLIN-3',7-DIGLUCOSIDE] reads 1.55 µM; that for `O=c1cc(-c2ccc(O)c(O)c2)oc2cc(O)cc(O)c12` [LUTEOLIN], 1.5 µM; that for `COc1ccc(-c2cc(=O)c3c(OC)c(OC)c(OC)cc3o2)cc1OC` [SINENSETIN], 10 µM. In the case of `COc1cc(-c2oc3cc(O)cc(O)c3c(=O)c2O)cc(OC)c1O` [SYRINGETIN], the IC50 worked out at 2.1 µM. On the same count and under the same terms, next, `COc1ccc(-c2oc3cc(O)cc(O)c3c(=O)c2O)cc1O` [TAMARIXETIN]: 4.6 µM; `O=C(/C=C/c1ccc(O)cc1)OC[C@H]1O[C@@H](Oc2c(-c3ccc(O)cc3)oc3cc(O)cc(O)c3c2=O)[C@H](O)[C@@H](O)[C@@H]1O` [TILIROSIDE]: 5.2 µM.

What is called IC50 is the concentration that gives 50% inhibition.

The record behind these values is ChEMBL document CHEMBL1158193, “Ability of different flavonoids to inhibit the procoagulant activity of adherent human monocytes” (J Nat Prod, 1996).
